Source: ChEMBL document CHEMBL1201862, “PubChem BioAssay data set” (2004)
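Five compound concentrations were applied to cells in 96-well plates for 48 hours; endpoints were derived by simple linear interpolation of the resulting dose-response curve. Abbreviation: GI50, concentration required for 50% inhibition of growth.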 The source made the active and inactive calls. Rule as the data show it: active = GI50 up to about 1.1 µM and inactive = higher.

Tests used:
Assay in all cases: DTP human tumour cell line panel, 48 h
MDA-MB-435 = system: MDA-MB-435
SF-539 = system: SF-539
NCI-H226 = system: NCI-H226
OVCAR-3 = system: OVCAR-3
M14 = system: M14
BT-549 = system: BT-549
T47D = system: T47D
SK-MEL-5 = system: SK-MEL-5
MDA-MB-231 = system: MDA-MB-231
EKVX = system: EKVX
MCF7 = system: MCF7
SK-OV-3 = system: SK-OV-3
LOX IMVI = system: LOX IMVI
A549 = system: A549
SNB-19 = system: SNB-19
IGROV-1 = system: IGROV-1
UACC-62 = system: UACC-62
MOLT-4 = system: MOLT-4
K562 = system: K562
A498 = system: A498

Measured: GI50

O=c1c2cc([N+](=O)[O-])cnc2sn1-c1ccc([N+](=O)[O-])cc1
inactive: MDA-MB-435 84.1 µM | SF-539 29.2 µM | NCI-H226 74.6 µM | OVCAR-3 34.6 µM | M14 48.8 µM | BT-549 40 µM | T47D 14.7 µM | SK-MEL-5 99.5 µM | MDA-MB-231 19.9 µM | EKVX 40.3 µM | MCF7 22.4 µM | SK-OV-3 35.5 µM | LOX IMVI 18.5 µM | A549 33 µM | SNB-19 30.1 µM | IGROV-1 52.5 µM | UACC-62 66.4 µM | MOLT-4 32.1 µM

O=C1Nc2ccccc2/C1=C1/Nc2ccccc2/C1=N\OCCOC1OCC(O)C(O)C1O (stereo not given)
inactive: MDA-MB-435 > 100 µM | K562 > 100 µM | SF-539 > 100 µM | NCI-H226 69.3 µM | OVCAR-3 > 100 µM | M14 43.4 µM | BT-549 > 100 µM | T47D 41.1 µM | SK-MEL-5 17.9 µM | MDA-MB-231 > 100 µM | EKVX > 100 µM | MCF7 53.2 µM | SK-OV-3 1.68 µM | LOX IMVI 8.59 µM | A549 > 100 µM | SNB-19 > 100 µM | IGROV-1 5.35 µM | UACC-62 95.1 µM | MOLT-4 85.7 µM

O=c1c2cc(-c3ccccc3)cnc2sn1-c1ccc(Br)cc1
inactive: MDA-MB-435 > 100 µM | K562 > 100 µM | SF-539 > 100 µM | NCI-H226 > 100 µM | OVCAR-3 37 µM | A498 > 100 µM | M14 > 100 µM | BT-549 > 100 µM | T47D > 100 µM | MDA-MB-231 > 100 µM | EKVX > 100 µM | MCF7 > 100 µM | SK-OV-3 > 100 µM | A549 > 100 µM | SNB-19 > 100 µM | IGROV-1 58.1 µM | UACC-62 > 100 µM | MOLT-4 > 100 µM

COC(C)(C)OCCN1CCN(CCN2C3=C(C=C(C(C)=O)C3)Sc3ccccc32)CC1
inactive: MDA-MB-435 16 µM | K562 15 µM | SF-539 20.1 µM | NCI-H226 22.9 µM | OVCAR-3 22.2 µM | A498 17.6 µM | M14 20.3 µM | BT-549 21.6 µM | T47D 23.9 µM | SK-MEL-5 17.5 µM | MDA-MB-231 22.3 µM | EKVX 42.1 µM | SK-OV-3 35.8 µM | LOX IMVI 20.7 µM | A549 32.6 µM | SNB-19 32.1 µM | IGROV-1 20 µM | UACC-62 15.3 µM | MOLT-4 17.3 µM

CN(/N=C/c1cccs1)c1ccc([N+](=O)[O-])cc1[N+](=O)[O-]
inactive: MDA-MB-435 > 100 µM | K562 > 100 µM | SF-539 > 100 µM | OVCAR-3 > 100 µM | M14 > 100 µM | BT-549 > 100 µM | T47D > 100 µM | SK-MEL-5 > 100 µM | MDA-MB-231 > 100 µM | EKVX > 100 µM | MCF7 > 100 µM | SK-OV-3 > 100 µM | A549 > 100 µM | SNB-19 > 100 µM | IGROV-1 > 100 µM | UACC-62 > 100 µM | MOLT-4 > 100 µM

CC(=O)OCC(OC(C)=O)C(OC(C)=O)C(OC(C)=O)C(C=NN(C(C)=O)S(=O)(=O)c1ccc(/C=C2\NC(=O)N(C)C2=O)cc1)OC(C)=O (stereo not given)
inactive: MDA-MB-435 36.3 µM | K562 21.4 µM | NCI-H226 38.7 µM | OVCAR-3 41.4 µM | A498 59.7 µM | M14 69.2 µM | BT-549 33.9 µM | T47D 27.1 µM | SK-MEL-5 30.1 µM | MDA-MB-231 36.1 µM | EKVX 43 µM | MCF7 40.1 µM | SK-OV-3 48.5 µM | LOX IMVI 21.8 µM | A549 56 µM | SNB-19 45 µM | IGROV-1 31.6 µM | UACC-62 13.6 µM

O=Cc1ccc(OC[C@H]2COC(=O)N2)cc1
inactive: MDA-MB-435 > 100 µM | K562 > 100 µM | SF-539 > 100 µM | NCI-H226 > 100 µM | OVCAR-3 > 100 µM | M14 > 100 µM | BT-549 > 100 µM | T47D > 100 µM | SK-MEL-5 > 100 µM | MDA-MB-231 > 100 µM | EKVX > 100 µM | MCF7 > 100 µM | SK-OV-3 > 100 µM | LOX IMVI > 100 µM | A549 47.9 µM | SNB-19 > 100 µM | IGROV-1 > 100 µM | UACC-62 > 100 µM | MOLT-4 > 100 µM

O=c1c2ccccc2nc(N/N=C/c2ccc([N+](=O)[O-])cc2)n1-c1ccccc1
inactive: MDA-MB-435 42.4 µM | K562 52.1 µM | NCI-H226 > 100 µM | OVCAR-3 31.3 µM | M14 31.7 µM | BT-549 18 µM | T47D 9.59 µM | SK-MEL-5 64.3 µM | MDA-MB-231 11.7 µM | EKVX 20 µM | MCF7 20.9 µM | SK-OV-3 18.7 µM | LOX IMVI 3.08 µM | A549 15.6 µM | SNB-19 20.7 µM | IGROV-1 > 100 µM | UACC-62 27 µM | MOLT-4 77.3 µM

N#Cc1cnn2cc[nH]c12
inactive: K562 > 100 µM | SF-539 10 µM | NCI-H226 > 100 µM | OVCAR-3 > 100 µM | A498 > 100 µM | M14 > 100 µM | BT-549 > 100 µM | T47D > 100 µM | SK-MEL-5 > 100 µM | MDA-MB-231 > 100 µM | EKVX > 100 µM | MCF7 > 100 µM | SK-OV-3 > 100 µM | A549 > 100 µM | SNB-19 > 100 µM | IGROV-1 > 100 µM | UACC-62 > 100 µM | MOLT-4 > 100 µM

O=c1[nH]c(=O)n(C2CC(O)C(CO)O2)cc1/N=N/NCCc1ccccc1 (stereo not given)
inactive: MDA-MB-435 > 100 µM | K562 > 100 µM | NCI-H226 > 100 µM | OVCAR-3 > 100 µM | M14 > 100 µM | BT-549 > 10 µM | T47D > 100 µM | SK-MEL-5 > 100 µM | MDA-MB-231 > 100 µM | EKVX > 100 µM | MCF7 > 100 µM | SK-OV-3 > 100 µM | LOX IMVI > 100 µM | A549 > 100 µM | SNB-19 > 100 µM | IGROV-1 > 100 µM | UACC-62 > 100 µM | MOLT-4 > 100 µM

NS(=O)(=O)c1nnc(NC(=O)/C=C/C(=O)O)s1
inactive: MDA-MB-435 > 100 µM | K562 > 100 µM | SF-539 > 100 µM | OVCAR-3 > 100 µM | A498 > 100 µM | M14 > 100 µM | BT-549 > 100 µM | T47D > 100 µM | SK-MEL-5 > 100 µM | MDA-MB-231 > 100 µM | EKVX > 100 µM | MCF7 > 100 µM | SK-OV-3 > 100 µM | LOX IMVI > 100 µM | A549 > 100 µM | SNB-19 > 100 µM | UACC-62 > 100 µM | MOLT-4 > 100 µM
